According to BindingDB's records for doi:10.1021/jm034141y (Merck Research Laboratories, 2003):

Assay: In vitro inhibition of purified Carboxypeptidase B (CPB) by ECL assay

IC50 [nM] | Compound
> 100000 | O=C(O)C(Cc1ccccc1)c1cnc[nH]1 (configuration not stated) [2-(1H-Imidazol-4-yl)-3-phenyl-propionic acid]
21 | Nc1ccc(CC(C(=O)O)c2cn(Cc3ccccc3)cn2)cn1 (configuration not stated) [3-(6-Amino-pyridin-3-yl)-2-(1-benzyl-1H-imidazol-4-yl)-propionic acid]
